Data as given in patent CN110179802A (priority 2019, dated 2019).

Assays:
Pyogeniccoccus (化脓链球菌) = conditions: cited from earlier work
[1] = in vivo; cited from earlier work
α-hemolysin (α-溶血素) = format: cell-based, Staphylococcus aureus (MRSA43300)
[2] = test system: Streptococcus pyogenes (酿脓链球菌); conditions: cited from earlier work
agrA gene (agrA基因) = experiment: Real-time PCR of agrA gene transcription in MRSA43300
[3] = test system: Staphylococcus aureus (金黄色葡萄球菌); conditions: cited from earlier work
HIa gene (HIa基因) = experiment: Real-time PCR of HIa gene transcription in MRSA43300
MRSA = conditions: cited from earlier work
[4] = test system: Mycoplasma pneumonia (肺炎支原体); conditions: cited from earlier work
MRSA43300 = experiment: Antibacterial activity against MRSA43300; format: cell-based, Staphylococcus aureus (MRSA43300)
[5] = test system: haemolytic activity of MRSA43300 culture supernatant on rabbit erythrocytes (MRSA43300培养物上清对兔红细胞的溶血活性); experiment: Haemolytic activity of MRSA43300 culture supernatant on rabbit erythrocytes after co-culture at sub-inhibitory concentrations; format: cell-based, MRSA 43300 (Staphylococcus aureus); rabbit erythrocytes; conditions: for inhibition rate of haemolysis: 16 h at 37℃ with MRSA43300, 543 nm
[6] = 1/2MIC, 1/4MIC, 1/8MIC, compared with control group

For `C=C[C@]1(C)C[C@@H](OC(=O)CSc2nc(N)cc(N)n2)[C@]2(C)[C@H](C)CC[C@]3(CCC(=O)[C@H]32)[C@@H](C)[C@@H]1O` [14-O-[(4,6-二氨基嘧啶-2-基)巯乙酰基]姆体林], the antibacterial activity (Pyogeniccoccus (化脓链球菌)) is given as “良好的抑菌活性”, the toxicity [1] is given as “毒性低” and the “content of α-hemolysin in culture supernatant” value (α-hemolysin (α-溶血素)) is given as “能减少培养物上清中的α-溶血素的含量,且呈明显的浓度依赖性”. For the same compound, the antibacterial activity [2] was “良好的抑菌活性”, the “agrA gene transcription level” value (agrA gene (agrA基因); [6]) was “与对照组相比差异显著” and the “agrA gene transcription level” value (agrA gene (agrA基因); 1/16MIC) was “没有明显的影响”. The “agrA gene transcription level” value (agrA gene (agrA基因); 1/32MIC) was “不影响agrA的基因转录水平”, the antibacterial activity [3] was “良好的抑菌活性” and the “HIa gene transcription level” value (HIa gene (HIa基因); [6]) was “与对照组相比差异极显著”. For the same compound, the “HIa gene transcription level” value (HIa gene (HIa基因); 1/16MIC, compared with control group) was “与对照组相比差异显著”, the “HIa gene transcription level” value (HIa gene (HIa基因); 1/32MIC) was “不影响HIa基因转录水平” and the antibacterial activity (MRSA) was “良好的抑菌活性”. For the same compound, the antibacterial activity [4] was “良好的抑菌活性”, the antibacterial activity (MRSA43300) was “较好抑菌活性” and the “inhibition rate of haemolysis” value ([5]; 1/2MIC) was 97.24±1.15%. For the same compound, the “inhibition rate of haemolysis” value ([5]; 1/4MIC) was 96.4±2.1%, the “inhibition rate of haemolysis” value ([5]; 1/16MIC) was 31.5±7.86% and the “inhibition of haemolytic activity, concentration dependence” value ([5]; sub-inhibitory concentrations, 1/2MIC to 1/32MIC) was “抑制能力随药物浓度的升高而增强”.
